This note sets out measurements from patent publication US8106215B2, “3-aza-bicyclo[3.3.0]octane compounds” (Actelion Pharmaceuticals Ltd., priority 2007, dated 2012).

Molecules are shown by their SMILES.

One assay addresses T1, human orexin-1 receptor (Homo sapiens, UniProt O43613).
T1 construct: expressed in transfected cells; host or cells: CHO cells (G418 selection)
T1 sequence (O43613 1-425): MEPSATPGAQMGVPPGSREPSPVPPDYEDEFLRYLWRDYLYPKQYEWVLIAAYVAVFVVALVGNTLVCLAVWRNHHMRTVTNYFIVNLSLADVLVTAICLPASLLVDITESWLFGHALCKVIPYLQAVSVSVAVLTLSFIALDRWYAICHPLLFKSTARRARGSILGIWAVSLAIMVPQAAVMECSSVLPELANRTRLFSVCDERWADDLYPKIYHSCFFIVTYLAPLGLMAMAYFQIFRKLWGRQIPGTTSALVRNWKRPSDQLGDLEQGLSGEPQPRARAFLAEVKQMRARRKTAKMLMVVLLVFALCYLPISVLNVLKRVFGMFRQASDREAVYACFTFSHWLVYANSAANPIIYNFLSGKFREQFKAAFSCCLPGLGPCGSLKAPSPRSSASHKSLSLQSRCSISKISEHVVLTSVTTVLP
Briefly: Intracellular calcium measurements (FLIPR), orexin receptor antagonistic activity, OX1. It is filed as cell-based. As to conditions: CHO cells expressing human orexin-1 receptor, 3 nM orexin-A. As to the method: (§1) The orexin receptor antagonistic activity of the compounds of formula (I) is determined in accordance with the following experimental method.
(§2) Intracellular Calcium Measurements:
(§3) Chinese hamster ovary (CHO) cells expressing the human orexin-1 receptor and the human orexin-2 receptor, respectively, are grown in culture medium (Ham F-12 with L-Glutamine) containing 300 μg/ml G418, 100 U/ml penicillin, 100 μg/ml streptomycin and 10% heat inactivated fetal calf serum (FCS). The cells are seeded at 20,000 cells/well into 384-well black clear bottom sterile plates (Greiner). The seeded plates are incubated overnight at 37° C. in 5% CO2.
(§4) Human orexin-A as an agonist is prepared as 1 mM stock solution in MeOH:water (1:1), diluted in HBSS containing 0.1% bovine serum albumin (BSA), NaHCO3: 0.375 g/l and 20 mM HEPES for use in the assay at a final concentration of 3 nM.
(§5) Antagonists are prepared as 10 mM stock solution in DMSO, then diluted in 384-well plates using DMSO followed by a transfer of the dilutions into in HBSS containing 0.1% bovine serum albumin (BSA), NaHCO3: 0.375 g/l and 20 mM HEPES. On the day of the assay, 50 μl of staining buffer (HBSS containing 1% FCS, 20 mM HEPES, NaHCO3: 0.375 g/l, 5 mM probenecid (Sigma) and 3 μM of the fluorescent calcium indicator fluo-4 AM (1 mM stock solution in DMSO, containing 10% pluronic) is added to each well. The 384-well cell-plates are incubated for 50 min at 37° C. in 5% CO2 followed by equilibration at rt for 30-120 min before measurement.
(§6) Within the Fluorescent Imaging Plate Reader (FLIPR2 or FLIPR Tetra, Molecular Devices), antagonists are added to the plate in a volume of […], incubated for 10 min and finally 10 μl/well of agonist is added. Fluorescence is measured for each well at 1 second intervals, and the height of each fluorescence peak is compared to the height of the fluorescence peak induced by 3 nM orexin-A with vehicle in place of antagonist. For each antagonist, the IC50 value (the concentration of compound needed to inhibit 50% of the agonistic response) is determined. With the FLIPR Tetra, non-optimized and optimized conditions were used. Optimized conditions were achieved by adjustment of pipetting speed and cell splitting regime. The calculated IC50 values of the compounds may fluctuate depending on the daily cellular assay performance. Fluctuations of this kind are known to those skilled in the art.
A general note: Calcium flux is commonly read through the fluorescence of an indicator in the cells.

A further assay concerns the target T2, human orexin-2 receptor (Homo sapiens, UniProt O43614).
T2 construct: expressed in transfected cells; host or cells: CHO cells (G418 selection)
T2 sequence (O43614 1-444): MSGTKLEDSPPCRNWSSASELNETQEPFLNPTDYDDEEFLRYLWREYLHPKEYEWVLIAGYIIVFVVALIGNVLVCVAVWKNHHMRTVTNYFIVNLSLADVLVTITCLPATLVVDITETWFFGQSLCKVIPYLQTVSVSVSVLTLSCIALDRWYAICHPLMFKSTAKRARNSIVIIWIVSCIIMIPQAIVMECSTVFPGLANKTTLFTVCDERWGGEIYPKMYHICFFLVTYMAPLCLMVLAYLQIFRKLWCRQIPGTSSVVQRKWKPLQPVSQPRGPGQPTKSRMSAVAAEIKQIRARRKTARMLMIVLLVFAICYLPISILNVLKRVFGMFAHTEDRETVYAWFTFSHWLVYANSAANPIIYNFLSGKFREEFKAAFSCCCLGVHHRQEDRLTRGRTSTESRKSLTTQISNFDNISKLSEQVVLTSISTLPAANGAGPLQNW
In words: Intracellular calcium measurements (FLIPR), orexin receptor antagonistic activity, OX2. Format: cell-based. As to conditions: CHO cells expressing human orexin-2 receptor, 3 nM orexin-A. As to the method: as §1, §2, §3, §4, §5, §6

Setting [1] is: FLIPR Tetra, non-optimized conditions.
Where [2] appears, read: FLIPR Tetra, optimized conditions.

What is called IC50 is the midpoint of a concentration-inhibition curve. For `Cc1cccc(-c2sc(C)nc2C(=O)N2C[C@@H]3CC(C)C[C@@H]3[C@H]2CNC(=O)c2c(C)noc2C)c1` (stereo partly drawn) [Example 6, 3,5-Dimethyl-isoxazole-4-carboxylic acid-(1S,2S,5R)-[7-methyl-3-(2-methyl-5-m-tolyl-thiazole-4-carbonyl)-3-aza-bicyclo[3.3.0]-2-ylmethyl]-amide], the concentration for half-maximal inhibition (IC50) at human orexin-1 receptor (FLIPR2) is 0.059 µM; at human orexin-2 receptor (FLIPR2) it was 0.114 µM.

Regarding `Cc1cccc(-c2sc(C)nc2C(=O)N2C[C@@H]3CC(C)C[C@@H]3[C@H]2CNC(=O)c2noc3ccccc23)c1` (stereo partly drawn) [Example 7, Benzo[d]isoxazole-3-carboxylic acid-(1S,2S,5R)-[7-methyl-3-(2-methyl-5-m-tolyl-thiazole-4-carbonyl)-3-aza-bicyclo[3.3.0]oct-2-ylmethyl]-amide], the IC50 on human orexin-1 receptor (FLIPR2) worked out at 0.012 µM; on human orexin-2 receptor (FLIPR2) it was 0.013 µM.

With `Cc1cccc(-c2sc(C)nc2C(=O)N2C[C@@H]3CC(C)C[C@@H]3[C@H]2CNC(=O)c2cnc3sccn23)c1` (stereo partly drawn) [Example 11, Imidazo[2,1-b]thiazole-5-carboxylic acid-(1S,2S,5R)-[7-methyl-3-(2-methyl-5-m-tolyl-thiazole-4-carbonyl)-3-aza-bicyclo[3.3.0]oct-2-ylmethyl]-amide], the figures for the IC50 at human orexin-1 receptor (FLIPR2) and on human orexin-2 receptor (FLIPR2) were 0.007 µM and 0.009 µM, respectively.

As to `Cc1cccc(C(=O)NC[C@@H]2[C@H]3CC(C)C[C@H]3CN2C(=O)c2nc(C)sc2-c2cccc(C)c2)c1` (stereo partly drawn) [Example 19, (1S,2S,5R)-3-Methyl-N-[7-methyl-3-(2-methyl-5-m-tolyl-thiazole-4-carbonyl)-3-aza-bicyclo[3.3.0]oct-2-ylmethyl]-benzamide], the half-inhibitory concentration (IC50) on human orexin-1 receptor (FLIPR2) stood at 0.077 µM; on human orexin-2 receptor (FLIPR2), 0.047 µM.

Regarding `Cc1cccc(-c2sc(C)nc2C(=O)N2C[C@@H]3CC(C)C[C@@H]3[C@H]2CNC(=O)c2cc(Cl)ccn2)c1` (stereo partly drawn) [Example 25, 4-Chloro-pyridine-2-carboxylic acid-(1S,2S,5R)-[7-methyl-3-(2-methyl-5-m-tolyl-thiazole-4-carbonyl)-3-aza-bicyclo[3.3.0]oct-2-ylmethyl]-amide], the results for the 50% inhibitory concentration (IC50) at human orexin-1 receptor (FLIPR2) and at human orexin-2 receptor (FLIPR2) were 0.024 µM and 0.048 µM, respectively.

On to `COc1cccc(-c2sc(C)nc2C(=O)N2C[C@@H]3CCC[C@@H]3[C@H]2CNC(=O)c2c(C)nc3sccn23)c1` [Example 33, 6-Methyl-imidazo[2,1-b]thiazole-5-carboxylic acid-(1S,2S,5R)-{3-[5-(3-methoxy-phenyl)-2-methyl-thiazole-4-carbonyl]-3-aza-bicyclo[3.3.0]oct-2-ylmethyl}-amide], for which the IC50 on human orexin-1 receptor (setting [1]) is 0.008 µM; at human orexin-2 receptor (setting [1]), 0.017 µM.

With `Cc1nc(C(=O)N2C[C@@H]3CC(C)C[C@@H]3[C@H]2CNC(=O)c2c(C)nc3sccn23)c(-c2cccc(C(F)(F)F)c2)s1` (stereo partly drawn) [Example 36, 6-Methyl-imidazo[2,1-b]thiazole-5-carboxylic acid-(1S,2S,5R)-{7-methyl-3-[2-methyl-5-(3-trifluoromethyl-phenyl)-thiazole-4-carbonyl]-3-aza-bicyclo[3.3.0]oct-2-ylmethyl}-amide], the figures for the half-inhibitory concentration (IC50) at human orexin-1 receptor (setting [1]) and on human orexin-2 receptor (setting [1]) were 0.044 µM and 0.262 µM, respectively.

On to `Cc1nc(C(=O)N2C[C@@H]3CC(C)C[C@@H]3[C@H]2CNC(=O)c2c(C)nc3sccn23)c(-c2ccc(F)c(F)c2)s1` (stereo partly drawn) [Example 51, 6-Methyl-imidazo[2,1-b]thiazole-5-carboxylic acid-(1S,2S,5R)-{3-[5-(3,4-difluoro-phenyl)-2-methyl-thiazole-4-carbonyl]-7-methyl-3-aza-bicyclo[3.3.0]oct-2-ylmethyl}-amide], for which the IC50 on human orexin-1 receptor (setting [1]) stood at 0.033 µM; on human orexin-2 receptor (setting [1]), 0.094 µM.

`Cc1nc2sccn2c1C(=O)NC[C@@H]1[C@H]2CCC[C@H]2CN1C(=O)c1ccccc1-c1ccccc1` [Example 60, 6-Methyl-imidazo[2,1-b]thiazole-5-carboxylic acid-(1S,2S,5R)-[3-(biphenyl-2-carbonyl)-3-aza-bicyclo[3.3.0]oct-2-ylmethyl]-amide]: the IC50 at human orexin-1 receptor (setting [1]) came to 0.016 µM; at human orexin-2 receptor (setting [1]) it was 0.021 µM.

Take `Cc1nc2sccn2c1C(=O)NC[C@@H]1[C@H]2CCC[C@H]2CN1C(=O)c1nc(N)sc1-c1cccc(F)c1` [Example 70, 6-Methyl-imidazo[2,1-b]thiazole-5-carboxylic acid-(1S,2S,5R)-{3-[2-amino-5-(3-fluoro-phenyl)-thiazole-4-carbonyl]-3-aza-bicyclo[3.3.0]oct-2-ylmethyl}-amide]: the concentration for half-maximal inhibition (IC50) at human orexin-1 receptor (setting [1]) turned out to be 0.017 µM; on human orexin-2 receptor (setting [1]), 0.02 µM.

As to `Cc1cccc(-c2sc(C)nc2C(=O)N2C[C@@H]3CC(F)(F)C[C@@H]3[C@H]2CNC(=O)c2cccc3c2CCO3)c1` [Example 79, 2,3-Dihydro-benzofuran-4-carboxylic acid-(1S,2S,5R)-[7,7-difluoro-3-(2-methyl-5-m-tolyl-thiazole-4-carbonyl)-3-aza-bicyclo[3.3.0]oct-2-ylmethyl]-amide], the 50% inhibitory concentration (IC50) at human orexin-1 receptor (setting [2]) stood at 0.008 µM; at human orexin-2 receptor (setting [2]), 0.02 µM.

Consider `Cc1cccc(-c2sc(C)nc2C(=O)N2C[C@@H]3CC(F)(F)C[C@@H]3[C@H]2CNC(=O)c2cccc3ncsc23)c1` [Example 81, Benzothiazole-7-carboxylic acid-(1S,2S,5R)-[7,7-difluoro-3-(2-methyl-5-m-tolyl-thiazole-4-carbonyl)-3-aza-bicyclo[3.3.0]oct-2-ylmethyl]-amide], for which the IC50 at human orexin-1 receptor (setting [2]) is 0.006 µM; at human orexin-2 receptor (setting [2]), 0.01 µM.

In the case of `Cc1cccc(-c2sc(C)nc2C(=O)N2C[C@@H]3CC(F)(F)C[C@@H]3[C@H]2CNC(=O)c2c(C)nc3sccn23)c1` [Example 85, 6-Methyl-imidazo[2,1-b]-thiazole-5-carboxylic acid-(1S,2S,5R)-[7,7-difluoro-3-(2-methyl-5-m-tolyl-thiazole-4-carbonyl)-3-aza-bicyclo[3.3.0]oct-2-ylmethyl]-amide], the results for the half-maximal inhibitory concentration (IC50) on human orexin-1 receptor (setting [2]) and on human orexin-2 receptor (setting [2]) were 0.007 µM and 0.018 µM, respectively.
